{"source": "patent US11007176B2", "about": "“Use of actin depolymerizing agents for the treatment of anxiety disorders” (priority 2019, dated 2021)", "system": "Atf3^−/− mice", "assay": "Trace fear conditioning (contextual and tone freezing tests) after intracranial infusion of cytochalasin D", "type": "in vivo", "description": "The habituation session was performed similarly to the DFC. The mice were divided into three groups (WT: n=15; Atf3^+/−: n=10; Atf3^−/−: n=16) and placed in the conditioning chamber for 15 min per day for 3 days. On Day 4, they underwent three trace fear conditioning trials: a 20-s tone (6000 Hz, 85 dB; CS), followed by a 10-s time interval, and then a 1-s foot shock (2 mA; US). Twenty-four hours later, the mice were placed in the same conditioning chamber for 6 min with neither tone nor foot shock for contextual testing. One hour after the contextual test, the mice were placed in a novel chamber for a tone test, which was performed as follows: 1 min with neither tone nor foot shock followed by a 6-min tone (6000 Hz, 85 dB). Freezing behaviors were recorded and analyzed using the FreezeScan software, and the freezing percentage was calculated using the aforementioned formula.\nAt 14 weeks of age, mice (Atf3^+/−: n=5, Atf3^−/−: n=9) were anesthetized using a mixture of ketamine, xylazine, and saline (0.55 mL/25 g) in accordance with the regulations of the Lab Animal Center, Tzu Chi University, Taiwan. Mouse heads were restrained in stereotaxic apparatus to ensure movement restriction during surgery. […] After surgery, the mice were placed in their respective cages to recover for 4 days and were then tested for TFC. Habituation was performed as described in the trace fear conditioning protocol. Using a Hamilton syringe, the actin depolymerizing agent cytochalasin D (Sigma-Aldrich, MO, USA, catalogue No. C8273), dissolved in dimethyl sulfoxide at a concentration of 25 μg/μL, was infused at a rate of 0.5 μL/min for 1 min immediately after fear conditioning on Day 4. Twenty-four hours later, contextual and tone testing was performed as previously described. A few mice were unable to perform the tasks because of loss of mobility after surgery; the data for these mice are not included. Mice were transcardially perfused, and their brains were incubated in Golgi-Cox staining solution.", "note": "Entries after “also recorded” stand apart in the source; their conditions may differ.", "data": [{"smiles": "C=C1[C@@H](C)[C@H]2[C@H](Cc3ccccc3)NC(=O)[C@]23[C@H](OC(C)=O)/C=C/[C@@](C)(O)C(=O)[C@@H](C)C/C=C/[C@H]3[C@@H]1O", "note": "[cytochalasin D]", "values": [{"measurement": "Freezing percentage to context", "setting": "Atf3^−/− mice, cytochalasin D 25 μg/μL in DMSO infused at 0.5 μL/min for 1 min immediately after trace fear conditioning, contextual test 24 h later, compared with Atf3^−/− mice treated with saline (FIG. 5G)", "result": "significantly lower"}, {"measurement": "Freezing percentage to tone", "setting": "Atf3^−/− mice, cytochalasin D 25 μg/μL in DMSO infused at 0.5 μL/min for 1 min immediately after trace fear conditioning, tone test 24 h later, compared with Atf3^−/− mice treated with saline (FIG. 5H)", "result": "significantly lower"}, {"measurement": "Freezing behavior (fear phenotype) of Atf3^−/− mice", "setting": "hippocampal / intracranial infusion of cytochalasin D, summary statement, context or tone test not specified", "result": "reversed the phenotype of Atf3^−/− mice; also recorded: reduced the freezing behavior of the Atf3^−/− mice to a wild-type mouse level"}]}]}
